Laboratory results from publication PMC9814779, “A triple farnesoid X receptor and peroxisome proliferator-activated receptor α/δ activator reverses hepatic fibrosis in diet-induced NASH in mice” (Communications Chemistry, 2020).

Experiments:
[1] = test system: FXR- and PPAR-regulated gene expression in HepG2 cells; test: FXR- and PPAR-regulated gene expression in HepG2 cells (qRT-PCR); type: cell-based, human; conditions: 12 h
Experimental: HepG2 cells (DSMZ) were grown in DMEM high glucose, supplemented with 10% FCS, 1 mM SP, penicillin (100 U/mL), and streptomycin (100 μg/mL) at 37 °C and 5% CO2 and seeded in 6-well plates (2 × 10^6 per well). After 24 h, medium was changed to Minimal Essential Medium supplemented with 1% charcoal-stripped FCS, penicillin (100 U/mL), streptomycin (100 μg/mL), and 2 mM L-glutamine. After an additional 24 h, cells were incubated with test compound 41 (0.1 µM, 0.3 µM, 1 μM), OCA (1 μM), or elafibranor (1 µM) dissolved in the same medium with 0.1% DMSO or medium with 0.1% DMSO alone as untreated control for 12 h, harvested, washed with cold phosphate-buffered saline (PBS), and then directly used for RNA extraction. C2C12 cells (American Type Culture Collection, ATCC) were grown in DMEM high glucose, supplemented with 10% FCS, 1 mM SP, penicillin (100 U/mL), and streptomycin (100 μg/mL) at 37 °C and 5% CO2 and seeded in 6-well plates (1 × 10^6 per well). Upon reaching confluence, medium was changed to Eagle’s Minimal Essential Medium supplemented with 2% horse serum, penicillin (100 U/mL), streptomycin (100 μg/mL), and 2 mM L-glutamine. Cells were then differentiated in this medium for 5 days before incubation with test compounds 41 (1 μM) or L165,041 (1 μM) dissolved in the same medium with 0.1% DMSO or medium with 0.1% DMSO alone as untreated control for 8 h. Cells were harvested, washed with cold PBS, and then directly used for RNA extraction. Total RNA was extracted from HepG2 cells or C2C12 cells using the total RNA Mini Kit (R6834-02, Omega Bio-Tek, Inc., Norcross, GA, USA). Two micrograms of extracted RNA were then reverse-transcribed into cDNA with the High-Capacity cDNA Reverse Transcription Kit (4368814, Thermo Fischer Scientific, Inc.). FXR- and PPAR-regulated gene expression was then studied by quantitative real-time PCR (qRT-PCR) analysis with a StepOnePlus System (Life Technologies, Carlsbad, CA, USA) using PowerSYBRGreen (Life Technologies; 12.5 μL per well). Each sample was set up in duplicates and repeated in four independent experiments. Data were analyzed by the comparative ΔΔCT method with glyceraldehyde 3-phosphate dehydrogenase (GAPDH) as reference gene. The following primers were used for HepG2 cells (human genes): hGAPDH: 5 ′-ATATGATTCCACCCATGGCA (fw), 5′-GATGATGACCCTTTTGGCTC (rev); hSHP: 5′-GCTGTCTGGAGTCCTTCTGG (fw), 5′-CCAATGATAGGGCGAAAGAAGAG (rev); hCYP7A1: 5′-CACCTTGAGGACGGTTCCTA (fw), 5′-CGATCCAAAGGGCATGTAGT (rev); hBSEP: 5′-CATGGTGCAAGAAGTGCTGAGT (fw), 5′-AAGCGATGAGCAACTGAAATGAT (rev); hACOX: 5′-ACT CGC AGC CAG CGT TAT G (fw), 5′-AGG GTC AGC GAT GCC AAA C (rev); hPDK4: 5′-AGAGCCTGATGGATTTGGTG (fw), 5′-GCTTGGGTTTCCTGTCTGTG (rev); hCPT1: 5′-ACAGTCGGTGAGGCCTCTTAT (fw), 5′-TCTTGCTGCCTGAATGTGAGT (rev); hFGF21: 5′-ATGGATCGCTCCACTTTGACC (fw), 5′-GGGCTTCGGACTGGTAAACAT (rev). The following primers were used for C2C12 cells (murine genes)[36]: mGAPDH: 5′-CGACTTCAACAGCAACTCCCACTCTTCC (fw), 5′-TGGGTGGTCCAGGGTTTCTTACTCCTT (rev); mPCK: 5′-TGTTTACTGGGAAGGCATCG (fw), 5′-CAGAATCTCGAGTTGGGATGG (rev); mGLUT3: 5′-CGTCCTTGAAGATTCCTGTTGA (fw), 5′-GTC ACC CAA CTA CGT CCA G (rev); mLPL: 5′-GTCAGGTTCTCTCTTGTACAGG (fw), 5′-TCTAACTGCCACTTCAACCAC (rev).

[2] = test system: nuclear receptors related to PPARs and FXR (LXRα/β, RXRα/β/γ, RARα/β/γ, VDR, CAR); test: Selectivity screening among nuclear receptors (Gal4 hybrid reporter gene assays); type: cell-based, human; conditions: three independent experiments
Source text: For the hybrid reporter gene assays, the previously reported Gal4-fusion receptor plasmids pFA-CMV-hPPARα-LBD[29], pFA-CMV-hPPARδ-LBD[29], pFA-CMV-hPPARγ-LBD[29], pFA-CMV-hLXRα-LBD[30], pFA-CMV-hLXRβ-LBD[30], pFA-CMV-hRXRα-LBD[31], pFA-CMV-hRXRβ-LBD[31], pFA-CMV-hRXRγ-LBD[31], pFA-CMV-hRARα-LBD[31], pFA-CMV-hRARβ-LBD[31], pFA-CMV-hRARγ-LBD[31], pFA-CMV-hVDR-LBD[31], and pFA-CMV-hCAR-LBD[31] coding for the hinge region and LBD of the canonical isoform of the respective nuclear receptor were used. pFR-Luc (Stratagene) was used as reporter plasmid for Gal4 hybrid reporter gene assays. pcDNA3-hFXR[32] and pSG5-hRXR[33] served for receptor overexpression in the full-length FXR assay and pGL3basic (Promega Corporation, Fitchburg, WI, USA) with a shortened construct of the BSEP promoter cloned into the SacI/NheI cleavage site in front of the luciferase gene[34] was used as reporter. PPRE-pGL3[35] contains the human full-length PPRE (cloned into the SacI/NheI cleavage site in front of the luciferase gene) and was used as reporter plasmid for the full-length PPRE reporter gene assay. pRL-SV40 (Promega) was used in all assays for normalization of transfection efficiency and cell growth.
Before transfection, medium was changed to Opti-MEM without supplements. […] Luminescence was measured with a Spark 10 M luminometer (Tecan Deutschland GmbH). […]

[3] = HepG2, 1 µM, vs. vehicle-treated cells

Structure (SMILES)	mRNA expression of FXR-regulated genes (BSEP, SHP, CYP7A1) [1, 3]	mRNA expression of PPAR-regulated genes (ACOX, PDK4, CPT1, FGF21) [1, 3]	selectivity among nuclear receptors related to PPARs and FXR [2]	dose dependence of BSEP, PDK4 and CPT1 expression ([1]; HepG2, 0.1 µM, 0.3 µM, 1 μM)
CC[C@H]1[C@@H](O)[C@@H]2[C@H](CC[C@]3(C)[C@@H]([C@H](C)CCC(=O)O)CC[C@@H]23)[C@@]2(C)CC[C@@H](O)C[C@@H]12 [OCA, 6α-ethylchenodeoxycholic acid, reference compound]	upregulation of BSEP and small heterodimer partner (SHP) mRNA as well as downregulation of CYP7A1	slightly induced ACOX and FGF21 expression		
CC(C)(C)c1ccc(C(=O)Nc2cccc(CCC(=O)O)c2)c(NC(=O)c2ccc(-c3ccco3)cc2)c1 [compound 41, 3-(3-[4-{tert-Butyl}-2-{4-(2-furyl)}benzamido]phenyl)propanoic acid]	upregulation of BSEP and small heterodimer partner (SHP) mRNA as well as downregulation of CYP7A1		no off-target liability	dose-dependent effects
